Source: patent US4049497A (priority 1974, dated 1977)
Several values for one entry are separate records, joined by “and”; a condition that tells them apart may be missing. Identical values can stand only once.

Key:
[1] = tested on: Staphylococcus aureus 209P; assay: Minimum inhibitory concentration on nutrient agar plates, 37° C., 17 hours; assay type: cell-based
Escherichia coli W677 = assay: as above; assay type: cell-based
[2] = tested on: Escherichia coli JR66/W677; assay: as above; assay type: cell-based
[3] = tested on: Bacillus subtilis PCI 219; assay: as above; assay type: cell-based
Piricularia oryzae = assay type: cell-based
[4] = tested on: Staphylococcus aureus Smith; assay: Minimum inhibitory concentration on nutrient agar plates, 37° C., 17 hours; assay type: cell-based
[5] = tested on: Aeromonas salmonecida ATCC 14174; assay: as above; assay type: cell-based
[6] = Partition between n-butanol and water; details: pH value of 2 to 7
leukemia L-1210 cells = assay: Chemotherapeutic effect against leukemia L-1210 in mice (survival); assay type: in vivo, mice (CDF 1 strain); details: i.p. once daily for 10 days
[7] = tested on: various bacteria and fungi; assay: Antibacterial and antifungal spectrum (overall); assay type: cell-based
Xanthomonas oryzae = assay type: cell-based; details: 37° C., 17 hours
Aspergillus niger = assay: Minimum inhibitory concentration on nutrient agar plates with 1% glucose, 27° C., 40 hours; assay type: cell-based
Saccharomyces cerevisiae = assay: as above; assay type: cell-based
Escherichia coli K-12 = assay: Minimum inhibitory concentration on nutrient agar plates, 37° C., 17 hours; assay type: cell-based
[8] = tested on: Staphylococcus aureus or Escherichia coli; assay: Standard cup-plate assay of potency
Candida albicans 3147 = assay: Minimum inhibitory concentration on nutrient agar plates with 1% glucose, 27° C., 40 hours; assay type: cell-based
[9] = tested on: Klebsiella pneumoniae PCI 602; assay: Minimum inhibitory concentration on nutrient agar plates, 37° C., 17 hours; assay type: cell-based
[10] = tested on: Pseudomonas aeruginosa No. 12; assay: as above; assay type: cell-based
Escherichia coli NIHJ = assay: as above; assay type: cell-based
Xanthomonas citri = assay: as above; assay type: cell-based
[11] = tested on: Vibrio anguillarum NCBM 6; assay: as above; assay type: cell-based
[12] = Stability of activity in 50% aqueous ethanol, room temperature, 16 hours; storage and methanol stability; details: for stability in 50% aqueous ethanol: 50% aqueous ethanol of pH 2.5; for activity reduced to: 50% aqueous ethanol of pH 2.5, room temperature, 16 hours; for stability as solid powder: cold and dark place
[13] = Acute toxicity, intraperitoneal injection in mice; details: for toxicity: animal and man, as shown by LD50 in mice; for LD50: mice, intraperitoneal, 0.25-0.5% in 10% dimethylsulfoxide-water
[14] = isolated colorless powder (Examples 3-6)

| SMILES | Minimum Inhibitory Concentration [1] [Mcg./ml.] | Minimum Inhibitory Concentration (Escherichia coli W677) [Mcg./ml.] | Minimum Inhibitory Concentration [2] [Mcg./ml.] | Minimum Inhibitory Concentration [3] [Mcg./ml.] | Minimum Inhibitory Concentration (Piricularia oryzae) [Mcg./ml.] | Minimum Inhibitory Concentration [4] [Mcg./ml.] | Minimum Inhibitory Concentration [5] [Mcg./ml.] | partition coefficient in n-butanol/water [6] | effects on the survival ratio (leukemia L-1210 cells) | antibacterial and antifungal activity [7] | Minimum Inhibitory Concentration (Xanthomonas oryzae) [Mcg./ml.] | Minimum Inhibitory Concentration (Aspergillus niger) [Mcg./ml.] | Minimum Inhibitory Concentration (Saccharomyces cerevisiae) [Mcg./ml.] | Minimum Inhibitory Concentration (Escherichia coli K-12) [Mcg./ml.] | potency [8, 14] | Minimum Inhibitory Concentration (Candida albicans 3147) [Mcg./ml.] | Minimum Inhibitory Concentration [9] [Mcg./ml.] | Minimum Inhibitory Concentration [10] [Mcg./ml.] | Minimum Inhibitory Concentration (Escherichia coli NIHJ) [Mcg./ml.] | Minimum Inhibitory Concentration (Xanthomonas citri) [Mcg./ml.] | other results |
| --- | --- | --- | --- | --- | --- | --- | --- | --- | --- | --- | --- | --- | --- | --- | --- | --- | --- | --- | --- | --- | --- |
| COc1cc2c(cc1O)N=C[C@@H]1CC[C@H](O)N1C2=O [neothramycin A] | > 100 | 50 | 100 | 100 | 50 | 50 | 25 | greater than 5 | highly favorable effects | low antibacterial and antifungal activity | 50 | 100 | 50 | 100 | 1000 u./mg. | > 100 | 50 | > 100 | 100 | > 100 | potency ([8]; pure neothramycin A from Example 3 as authentic sample): 1000 units per mg; Minimum Inhibitory Concentration [11]: 50 Mcg./ml.; stability in 50% aqueous ethanol [12]: unstable; activity reduced to [12]: 25%; stability as solid powder [12]: stable for a long period of time; toxicity [13]: low toxicity; LD50 [13]: 20 to 30 mg/kg |
| COc1cc2c(cc1O)N=C[C@@H]1CC[C@@H](O)N1C2=O [neothramycin B] | > 100 | 100 | > 100 | > 100 | > 100 | 100 | 50 | greater than 5 | highly favorable effects | low antibacterial and antifungal activity | 100 | > 100 | > 100 | 100 | 620 u./mg. and 835 u./mg. | > 100 | 100 | > 100 | 100 | > 100 | Minimum Inhibitory Concentration [11]: 100 Mcg./ml.; stability in 50% aqueous ethanol [12]: unstable; activity reduced to [12]: 22%; stability as solid powder [12]: stable for a long period of time; toxicity [13]: low toxicity; LD50 [13]: 20 to 30 mg/kg |
